Test results published in PubChem BioAssay AID1963965 (Molecular Pharmacology Branch, DTP, NCI, 2024).

System: 996289-038-R-J1-PDC spheroid viability
Assay: Anticancer human tumor 996289-038-R-J1-PDC patient-derived colon adenocarcinoma cell line growth inhibition [PI3K]
Settings: spheroids with HUVEC and MSC; for IC50: curve of first compound; for viability, T/C: stronger effect = lower value
Excerpt: Combinatorial screen of targeted agents with the PI3K inhibitors inavolisib, alpelisib, duvelisib, and copanlisib in multi-cell type tumor spheroids
A high-throughput screen of multi-cell type tumor spheroids was designed to identify active combinations of targeted small molecules and PI3K pathway inhibitors. Complex spheroids include a stromal component modeled by human endothelial cells (HUVEC) and fibroblasts modeled by human mesenchymal stem cells (MSCs). The concentration ranges selected for each drug and investigational agent were based upon clinically achievable concentrations if the clinical Cmax of the agent was known.
Compounds. The drugs and investigational agents: inavolisib (NSC800729), alpelisib (NSC765974), duvelisib (NSC772469), copanlisib (NSC816437), ipatasertib (NSC767898), afuresertib (NSC778305), talazoparib (NSC767125), sapanisertib (NSC764658), selumetinib (NSC741078), tovorafenib (DAY101, NSC766906), vemurafenib (NSC761431), ravoxertinib (NSC781343), sotorasib (NSC818433), MRTX1133 (NSC 836407), abemaciclib (NSC 768073), palbociclib (NSC758247), venetoclax (NSC 766270), SY5609 (NSC837396), enzalutamide (NSC755605), and darolutamide (NSC825331), were obtained from the National Cancer Institute (NCI) Developmental Therapeutics Program Chemical Repository. The FDA-approved anticancer drug set is available from the NCI Developmental Therapeutics Program. […] The stock solutions were prepared in dimethyl sulfoxide (DMSO, Sigma-Aldrich, St. Louis, MO, cat. D2650) at 800-fold the tested concentration and stored at -70 degrees C prior to their use. All drugs and investigational agents were tested over a range starting from a high concentration at or near the clinical Cmax and decreasing in half-log increments. If the clinical Cmax for an agent had not been determined, the highest concentration tested was 10 microM.
Cell Culture. All cells were maintained in an incubator at 37 degrees C and 5% CO2 with 95% humidity. The PDC lines were cultured according to standard operating procedures established by the NCI PDMR (https://pdmr.cancer.gov/sops/default.htm). All PDCs were thawed and cultured in Matrigel-coated flasks prepared with a working solution of 1X Ham's F-12 nutrient mix, without supplementation (Invitrogen, Waltham, MA, cat. 11765054), 100 U/mL penicillin-streptomycin (Invitrogen, cat. 15140122), and 2.5% Matrigel (Corning Inc., Corning, NY, cat. 354248) for the first three passages. The 354836-022-R-J1-PDC, 475296-252-R-J1-PDC, and 997726-040-R-J2-PDC lines were cultured in 6A media, which includes advanced DMEM/F-12 (Thermo Fisher Scientific, cat. 12634028), 10 mM HEPES (Thermo Fisher Scientific, cat. 15630080), 1X GlutaMAX supplement (Thermo Fisher Scientific, cat. 35050061), 0.1 mg/mL primocin (InvivoGen, San Diego, CA, cat. ant-pm-2), 10% defined fetal bovine serum, heat inactivated (HyClone Laboratories Inc., Logan, UT, cat. SH30070.03HI), 50% L-WRN conditioned media (ATCC, cat. CRL-3276), 1.25 mM N-Acetyl-L-cysteine (Sigma-Aldrich, cat. A9165), 10 mM nicotinamide (Sigma-Aldrich, cat. N0636), 1X B-27 supplement (Thermo Fisher Scientific, cat. 17504044), 1X N-2 supplement (Thermo Fisher Scientific, cat. 17502048), and 10 microM Y-27632 dihydrochloride (Tocris Bioscience, Bristol, United Kingdom, cat. 1254). The 624824-186-R-J2-PDC line was cultured in 6C/Colon 1B media, which includes all 6A media components plus 50 ng/mL human EGF recombinant protein (Thermo Fisher Scientific, cat. PHG0311). […]
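Further: spheroids exposed to compounds for seven days before viability read.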
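Wherever viability, T/C is given: luminescence used as a proxy for viable cell amount; percent viability relative to DMSO vehicle control as 100%.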

With `C#Cc1c(F)ccc2cc(O)cc(-c3ncc4c(N5CC6CCC(C5)N6)nc(OCC56CCCN5CC(F)C6)nc4c3F)c12` (configuration not stated) + CC(Nc1ccc2c(c1)OCCn1cc(N3C(=O)OCC3C(F)F)nc1-2)C(N)=O the IC50 (second compound 0.00316 µM) was 1.45 µM, the IC50 (second compound 0.01 µM) was 0.859 µM and the IC50 (second compound 0.0316 µM) was 0.641 µM. It also gave an IC50 (second compound 0.1 µM) of 0.347 µM, an IC50 (second compound 0.316 µM) of 0.169 µM and an IC50 (second compound 1 µM) of 0.0772 µM. For the same compound, the viability, T/C (second compound 0.00316 µM, first compound 0.0316 µM) was 86%, the viability, T/C (second compound 0.00316 µM, first compound 0.1 µM) was 81.2% and the viability, T/C (second compound 0.00316 µM, first compound 0.316 µM) was 67.4%. For the same compound, the viability, T/C (second compound 0.00316 µM, first compound 1 µM) was 52%, the viability, T/C (second compound 0.00316 µM, first compound 3.16 µM) was 45% and the viability, T/C (second compound 0.00316 µM, first compound 10 µM) was 34.9%. The viability, T/C (second compound 0.01 µM, first compound 0.0316 µM) was 89%, the viability, T/C (second compound 0.01 µM, first compound 0.1 µM) was 80.6% and the viability, T/C (second compound 0.01 µM, first compound 0.316 µM) was 57.7%. The viability, T/C (second compound 0.01 µM, first compound 1 µM) was 52.6%, the viability, T/C (second compound 0.01 µM, first compound 3.16 µM) was 39.8% and the viability, T/C (second compound 0.01 µM, first compound 10 µM) was 41.1%. It also gave a viability, T/C (second compound 0.0316 µM, first compound 0.0316 µM) of 87.5%, a viability, T/C (second compound 0.0316 µM, first compound 0.1 µM) of 83.2% and a viability, T/C (second compound 0.0316 µM, first compound 0.316 µM) of 59.6%. The viability, T/C (second compound 0.0316 µM, first compound 1 µM) was 42.5%, the viability, T/C (second compound 0.0316 µM, first compound 3.16 µM) was 44.2% and the viability, T/C (second compound 0.0316 µM, first compound 10 µM) was 30%. For the same compound, the viability, T/C (second compound 0.1 µM, first compound 0.0316 µM) was 75%, the viability, T/C (second compound 0.1 µM, first compound 0.1 µM) was 69.6% and the viability, T/C (second compound 0.1 µM, first compound 0.316 µM) was 50.2%. For the same compound, the viability, T/C (second compound 0.1 µM, first compound 1 µM) was 35.9%, the viability, T/C (second compound 0.1 µM, first compound 3.16 µM) was 32% and the viability, T/C (second compound 0.1 µM, first compound 10 µM) was 26.1%. The viability, T/C (second compound 0.316 µM, first compound 0.0316 µM) was 72.2%, the viability, T/C (second compound 0.316 µM, first compound 0.1 µM) was 57.1% and the viability, T/C (second compound 0.316 µM, first compound 0.316 µM) was 40.8%. The viability, T/C (second compound 0.316 µM, first compound 1 µM) was 33.7%, the viability, T/C (second compound 0.316 µM, first compound 3.16 µM) was 29.6% and the viability, T/C (second compound 0.316 µM, first compound 10 µM) was 21.6%. The viability, T/C (second compound 1 µM, first compound 0.0316 µM) was 56.8%, the viability, T/C (second compound 1 µM, first compound 0.1 µM) was 48.8% and the viability, T/C (second compound 1 µM, first compound 0.316 µM) was 39%. The viability, T/C (second compound 1 µM, first compound 1 µM) was 29.3%, the viability, T/C (second compound 1 µM, first compound 3.16 µM) was 26.4% and the viability, T/C (second compound 1 µM, first compound 10 µM) was 17.9%.
